Measured values published in ChEMBL document CHEMBL1152560, “Substituted 2-arylbenzothiazoles as kinase inhibitors: hit-to-lead optimization” (Bioorg Med Chem, 2009).

Key:
[1] = target: Epidermal growth factor receptor (Homo sapiens, UniProt P00533); test: Residual activity of wild type EGF-R at 1 uM by microplate scintillation counting
[2] = target: Fibroblast growth factor receptor 1 (Homo sapiens) (UniProt P11362); test: Residual activity of wild type FGF-R1 at 1 uM by microplate scintillation counting
[3] = target: Eukaryotic translation initiation factor 2-alpha kinase 1 (Homo sapiens) (UniProt Q9BQI3); test: Residual activity of HRI at 0.1 uM by microplate scintillation counting
[4] = target: Interleukin-1 receptor-associated kinase 1 (Homo sapiens) (UniProt P51617); test: Residual activity of IRAKI at 0.1 uM by microplate scintillation counting
[5] = target: Insulin receptor-related protein (Homo sapiens) (UniProt P14616); test: Residual activity of INSRR at 1 uM by microplate scintillation counting
[6] = target: T1, Muscle, skeletal receptor tyrosine-protein kinase (Homo sapiens) (UniProt O15146); test: Residual activity of MUSK at 0.1 uM by microplate scintillation counting
T1 sequence (whole entry): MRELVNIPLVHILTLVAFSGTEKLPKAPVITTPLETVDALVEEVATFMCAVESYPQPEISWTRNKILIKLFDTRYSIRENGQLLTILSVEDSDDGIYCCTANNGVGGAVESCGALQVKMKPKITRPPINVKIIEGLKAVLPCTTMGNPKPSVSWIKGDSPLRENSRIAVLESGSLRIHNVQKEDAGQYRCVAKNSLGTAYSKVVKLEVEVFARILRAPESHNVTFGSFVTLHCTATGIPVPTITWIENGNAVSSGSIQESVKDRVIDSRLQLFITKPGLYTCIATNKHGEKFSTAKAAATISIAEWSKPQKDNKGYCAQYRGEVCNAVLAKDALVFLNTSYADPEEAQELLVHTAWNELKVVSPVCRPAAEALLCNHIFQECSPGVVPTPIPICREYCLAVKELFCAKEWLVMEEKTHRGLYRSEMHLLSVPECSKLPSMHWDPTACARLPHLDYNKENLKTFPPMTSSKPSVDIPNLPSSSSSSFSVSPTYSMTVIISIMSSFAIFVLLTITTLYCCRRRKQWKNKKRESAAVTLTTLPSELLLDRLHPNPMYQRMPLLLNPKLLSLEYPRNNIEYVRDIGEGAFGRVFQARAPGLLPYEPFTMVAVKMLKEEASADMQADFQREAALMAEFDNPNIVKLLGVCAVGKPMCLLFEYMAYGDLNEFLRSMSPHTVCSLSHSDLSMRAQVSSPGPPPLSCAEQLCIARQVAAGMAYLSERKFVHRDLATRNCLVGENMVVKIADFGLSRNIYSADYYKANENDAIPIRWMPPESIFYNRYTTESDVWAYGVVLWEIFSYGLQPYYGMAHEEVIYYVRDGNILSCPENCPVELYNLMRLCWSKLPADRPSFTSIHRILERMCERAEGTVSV

[7] = target: T2, Serine/threonine-protein kinase 4 (Homo sapiens) (UniProt Q13043); test: Residual activity of MST1 at 0.1 uM by microplate scintillation counting
T2 sequence (whole entry): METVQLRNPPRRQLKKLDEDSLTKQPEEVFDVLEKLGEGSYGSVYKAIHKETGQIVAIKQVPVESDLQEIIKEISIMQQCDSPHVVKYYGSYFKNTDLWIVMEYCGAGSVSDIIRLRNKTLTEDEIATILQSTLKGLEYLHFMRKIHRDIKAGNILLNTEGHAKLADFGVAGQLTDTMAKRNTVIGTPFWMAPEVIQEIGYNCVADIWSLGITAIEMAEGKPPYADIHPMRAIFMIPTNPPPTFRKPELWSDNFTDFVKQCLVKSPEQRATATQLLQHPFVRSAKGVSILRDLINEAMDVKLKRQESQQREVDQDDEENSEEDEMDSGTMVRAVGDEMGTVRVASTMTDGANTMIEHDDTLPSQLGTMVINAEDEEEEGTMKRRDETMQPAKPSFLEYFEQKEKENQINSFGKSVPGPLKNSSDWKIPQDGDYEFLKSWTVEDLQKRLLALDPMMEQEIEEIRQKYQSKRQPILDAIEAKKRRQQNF

[8] = target: Interferon-induced, double-stranded RNA-activated protein kinase (Homo sapiens) (UniProt P19525); test: Residual activity of EIF2AK2 at 10 uM by microplate scintillation counting
[9] = target: Serine/threonine-protein kinase B-raf (Homo sapiens) (UniProt P15056); test: Residual activity of Wild type B-RAF at 0.1 uM by microplate scintillation counting
[10] = target: T3, Serine/threonine-protein kinase Nek3 (Homo sapiens) (UniProt P51956); test: Residual activity of NEK3 at 0.1 uM by microplate scintillation counting
T3 sequence (whole entry): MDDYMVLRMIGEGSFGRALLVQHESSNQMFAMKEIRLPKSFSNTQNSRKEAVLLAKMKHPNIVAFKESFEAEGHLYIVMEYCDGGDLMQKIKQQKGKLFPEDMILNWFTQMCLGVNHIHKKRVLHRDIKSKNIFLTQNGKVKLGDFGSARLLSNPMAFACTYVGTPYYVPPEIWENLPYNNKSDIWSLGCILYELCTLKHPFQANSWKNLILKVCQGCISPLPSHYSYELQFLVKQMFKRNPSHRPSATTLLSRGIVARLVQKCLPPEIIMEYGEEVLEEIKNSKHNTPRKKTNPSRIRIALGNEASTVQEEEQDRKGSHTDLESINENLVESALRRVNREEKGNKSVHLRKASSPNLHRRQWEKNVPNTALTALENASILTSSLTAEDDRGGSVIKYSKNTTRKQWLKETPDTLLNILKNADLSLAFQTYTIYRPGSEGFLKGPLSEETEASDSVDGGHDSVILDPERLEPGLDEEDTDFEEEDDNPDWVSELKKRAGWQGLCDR

Chain of Eukaryotic translation initiation factor 2-alpha kinase 1 (Homo sapiens) (Q9BQI3 whole entry): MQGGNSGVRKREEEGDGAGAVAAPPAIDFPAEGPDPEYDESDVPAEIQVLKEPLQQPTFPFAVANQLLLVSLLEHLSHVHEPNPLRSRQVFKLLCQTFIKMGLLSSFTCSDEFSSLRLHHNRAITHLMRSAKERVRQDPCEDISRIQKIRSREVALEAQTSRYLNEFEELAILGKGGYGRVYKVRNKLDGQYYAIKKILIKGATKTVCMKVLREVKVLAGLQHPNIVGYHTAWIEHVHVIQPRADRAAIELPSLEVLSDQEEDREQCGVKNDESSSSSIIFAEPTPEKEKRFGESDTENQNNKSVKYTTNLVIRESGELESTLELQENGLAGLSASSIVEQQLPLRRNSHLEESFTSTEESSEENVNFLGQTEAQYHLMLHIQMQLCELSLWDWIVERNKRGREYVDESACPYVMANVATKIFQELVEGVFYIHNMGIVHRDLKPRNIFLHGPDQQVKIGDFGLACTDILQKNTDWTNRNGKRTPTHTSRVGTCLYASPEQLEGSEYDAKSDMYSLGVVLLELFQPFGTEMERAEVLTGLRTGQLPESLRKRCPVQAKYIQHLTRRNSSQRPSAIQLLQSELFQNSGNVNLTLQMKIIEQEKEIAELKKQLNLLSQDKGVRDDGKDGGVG
Chain of Serine/threonine-protein kinase B-raf (Homo sapiens) (P15056 whole entry): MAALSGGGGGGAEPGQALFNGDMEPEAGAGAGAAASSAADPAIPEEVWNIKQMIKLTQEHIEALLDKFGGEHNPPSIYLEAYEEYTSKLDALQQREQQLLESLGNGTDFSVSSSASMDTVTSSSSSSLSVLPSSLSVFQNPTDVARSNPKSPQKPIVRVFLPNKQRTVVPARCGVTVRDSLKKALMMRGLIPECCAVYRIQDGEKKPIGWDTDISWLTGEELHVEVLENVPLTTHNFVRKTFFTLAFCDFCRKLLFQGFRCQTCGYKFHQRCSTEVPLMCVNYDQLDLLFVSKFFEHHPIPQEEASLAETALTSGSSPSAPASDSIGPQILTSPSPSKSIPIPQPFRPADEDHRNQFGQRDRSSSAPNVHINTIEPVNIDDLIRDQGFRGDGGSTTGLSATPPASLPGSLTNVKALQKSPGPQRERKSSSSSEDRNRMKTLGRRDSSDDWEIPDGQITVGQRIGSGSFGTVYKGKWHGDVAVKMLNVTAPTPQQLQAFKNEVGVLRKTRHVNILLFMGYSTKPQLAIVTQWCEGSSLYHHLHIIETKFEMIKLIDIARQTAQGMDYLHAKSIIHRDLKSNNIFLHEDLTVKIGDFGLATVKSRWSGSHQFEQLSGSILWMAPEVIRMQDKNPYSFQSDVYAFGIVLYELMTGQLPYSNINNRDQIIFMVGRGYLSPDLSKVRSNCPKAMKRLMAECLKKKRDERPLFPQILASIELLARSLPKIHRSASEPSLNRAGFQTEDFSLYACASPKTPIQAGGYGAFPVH
Chain of Interferon-induced, double-stranded RNA-activated protein kinase (Homo sapiens) (P19525 whole entry): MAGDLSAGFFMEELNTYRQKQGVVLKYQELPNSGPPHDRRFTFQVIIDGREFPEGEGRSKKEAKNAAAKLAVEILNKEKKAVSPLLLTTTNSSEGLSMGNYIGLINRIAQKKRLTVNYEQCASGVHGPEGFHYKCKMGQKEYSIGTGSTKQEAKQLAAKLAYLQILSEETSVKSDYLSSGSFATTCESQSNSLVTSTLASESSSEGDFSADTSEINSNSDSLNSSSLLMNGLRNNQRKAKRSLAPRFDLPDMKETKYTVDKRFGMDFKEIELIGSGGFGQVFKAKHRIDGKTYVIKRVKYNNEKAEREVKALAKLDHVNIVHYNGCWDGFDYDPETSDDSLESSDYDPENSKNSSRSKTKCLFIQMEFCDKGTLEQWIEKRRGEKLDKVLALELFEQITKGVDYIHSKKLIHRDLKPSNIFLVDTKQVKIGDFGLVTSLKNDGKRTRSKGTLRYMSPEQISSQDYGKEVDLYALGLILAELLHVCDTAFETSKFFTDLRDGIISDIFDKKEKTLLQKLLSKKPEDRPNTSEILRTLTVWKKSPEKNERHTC
Chain of Epidermal growth factor receptor (P00533 whole entry): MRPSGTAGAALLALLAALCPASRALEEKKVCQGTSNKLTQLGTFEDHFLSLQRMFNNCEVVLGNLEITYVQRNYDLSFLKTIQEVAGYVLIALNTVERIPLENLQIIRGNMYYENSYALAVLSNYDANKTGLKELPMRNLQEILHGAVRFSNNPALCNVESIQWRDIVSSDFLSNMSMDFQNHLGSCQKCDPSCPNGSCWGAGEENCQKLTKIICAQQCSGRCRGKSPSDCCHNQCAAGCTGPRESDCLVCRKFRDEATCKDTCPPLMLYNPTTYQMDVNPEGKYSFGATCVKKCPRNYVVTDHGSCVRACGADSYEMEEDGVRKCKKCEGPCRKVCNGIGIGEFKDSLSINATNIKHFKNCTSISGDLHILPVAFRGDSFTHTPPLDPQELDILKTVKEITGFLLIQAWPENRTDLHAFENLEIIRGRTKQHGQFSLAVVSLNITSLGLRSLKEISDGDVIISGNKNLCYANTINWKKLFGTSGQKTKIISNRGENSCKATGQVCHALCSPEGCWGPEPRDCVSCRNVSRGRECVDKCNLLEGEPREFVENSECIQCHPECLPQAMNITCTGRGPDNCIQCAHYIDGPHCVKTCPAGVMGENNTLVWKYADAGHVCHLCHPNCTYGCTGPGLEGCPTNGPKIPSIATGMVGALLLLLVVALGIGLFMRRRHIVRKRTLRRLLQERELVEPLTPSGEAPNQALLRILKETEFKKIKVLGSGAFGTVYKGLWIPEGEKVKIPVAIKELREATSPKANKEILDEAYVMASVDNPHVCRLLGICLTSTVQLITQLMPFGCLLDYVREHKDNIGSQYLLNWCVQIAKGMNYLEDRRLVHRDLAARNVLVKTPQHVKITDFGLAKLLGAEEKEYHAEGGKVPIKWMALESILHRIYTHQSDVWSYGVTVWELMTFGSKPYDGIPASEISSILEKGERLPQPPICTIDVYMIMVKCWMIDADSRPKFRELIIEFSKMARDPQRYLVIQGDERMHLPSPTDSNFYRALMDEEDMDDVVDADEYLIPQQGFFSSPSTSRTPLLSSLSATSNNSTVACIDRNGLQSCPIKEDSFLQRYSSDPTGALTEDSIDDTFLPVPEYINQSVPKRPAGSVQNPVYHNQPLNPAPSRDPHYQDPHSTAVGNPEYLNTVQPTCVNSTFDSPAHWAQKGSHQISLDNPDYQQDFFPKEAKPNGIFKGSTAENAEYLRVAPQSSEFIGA
Chain of Fibroblast growth factor receptor 1 (Homo sapiens) (P11362 22-822 limits assumed): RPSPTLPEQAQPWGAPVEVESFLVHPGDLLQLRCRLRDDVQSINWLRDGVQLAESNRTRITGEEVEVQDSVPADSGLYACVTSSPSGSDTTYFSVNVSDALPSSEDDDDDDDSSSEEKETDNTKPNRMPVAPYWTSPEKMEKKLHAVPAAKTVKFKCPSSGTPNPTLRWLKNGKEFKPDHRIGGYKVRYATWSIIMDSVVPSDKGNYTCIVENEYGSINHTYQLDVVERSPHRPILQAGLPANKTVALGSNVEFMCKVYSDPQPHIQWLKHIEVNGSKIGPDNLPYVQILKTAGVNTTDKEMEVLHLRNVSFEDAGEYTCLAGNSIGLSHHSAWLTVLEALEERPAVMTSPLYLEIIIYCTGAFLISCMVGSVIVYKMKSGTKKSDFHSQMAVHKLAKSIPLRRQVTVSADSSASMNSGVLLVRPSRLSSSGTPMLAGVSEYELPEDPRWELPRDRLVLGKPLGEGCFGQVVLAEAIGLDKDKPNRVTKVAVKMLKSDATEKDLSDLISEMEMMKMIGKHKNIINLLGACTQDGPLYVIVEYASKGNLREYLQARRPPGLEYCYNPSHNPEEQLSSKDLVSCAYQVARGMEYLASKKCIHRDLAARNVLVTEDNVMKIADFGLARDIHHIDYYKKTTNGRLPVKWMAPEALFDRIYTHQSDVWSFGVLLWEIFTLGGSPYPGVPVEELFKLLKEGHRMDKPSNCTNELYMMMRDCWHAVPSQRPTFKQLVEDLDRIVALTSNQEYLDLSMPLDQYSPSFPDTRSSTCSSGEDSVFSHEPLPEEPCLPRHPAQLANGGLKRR
Chain of Interleukin-1 receptor-associated kinase 1 (Homo sapiens) (P51617 whole entry, looked up): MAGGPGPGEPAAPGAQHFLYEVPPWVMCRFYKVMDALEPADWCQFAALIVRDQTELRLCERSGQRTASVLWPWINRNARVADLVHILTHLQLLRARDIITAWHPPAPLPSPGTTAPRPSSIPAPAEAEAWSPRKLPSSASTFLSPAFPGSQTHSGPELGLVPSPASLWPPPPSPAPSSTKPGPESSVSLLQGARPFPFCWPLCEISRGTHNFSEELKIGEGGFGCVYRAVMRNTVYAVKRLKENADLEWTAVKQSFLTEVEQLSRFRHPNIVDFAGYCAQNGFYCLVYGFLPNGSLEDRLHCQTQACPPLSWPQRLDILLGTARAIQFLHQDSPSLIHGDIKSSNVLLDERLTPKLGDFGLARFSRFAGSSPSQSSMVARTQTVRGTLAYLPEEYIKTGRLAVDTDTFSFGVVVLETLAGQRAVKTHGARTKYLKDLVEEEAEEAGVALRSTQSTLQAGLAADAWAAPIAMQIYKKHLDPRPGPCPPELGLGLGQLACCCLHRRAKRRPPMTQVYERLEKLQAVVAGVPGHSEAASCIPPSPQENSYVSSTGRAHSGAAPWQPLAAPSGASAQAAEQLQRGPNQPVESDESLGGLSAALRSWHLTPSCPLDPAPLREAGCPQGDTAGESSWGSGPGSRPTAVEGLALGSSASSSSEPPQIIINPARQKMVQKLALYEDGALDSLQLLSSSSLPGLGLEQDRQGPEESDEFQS

| Structure (SMILES) | residual activity [1] [%] | residual activity [2] [%] | residual activity [3] [%] | residual activity [4] [%] | residual activity [5] [%] | residual activity [6] [%] | residual activity [7] [%] | residual activity [8] [%] | residual activity [9] [%] | residual activity [10] [%] |
| --- | --- | --- | --- | --- | --- | --- | --- | --- | --- | --- |
| COc1cc2c(Oc3ccc(-c4nc5ccccc5s4)cc3F)ncnc2cc1OCCCN1CCN(C)CC1 | 96 | 115 | 98 | 84 | 73 | 96 | 104 | 28 | 95 | 93 |
| COc1cc2c(Oc3ccc(-c4nc5ccccc5s4)cc3)ncnc2cc1OCCCN1CCCC1 | 91 | 126 | 92 | 61 | 96 | 97 | 96 | 27 | 98 | 96 |
| COc1cc2c(Oc3ccc(-c4nc5ccccc5s4)cc3)ncnc2cc1OCCCN1CCN(C)CC1 | 77 | 123 | 113 | 77 | 105 | 95 | 96 | 21 | 90 | 98 |
